Results published in US20120108811A1, “PROCESS FOR PREPARING TEMOZOLOMIDE” (FORMOSA LABORATORIES INC., priority 2010, published 2012).

Key:
[1] = Long-term stability of Temozolomide prepared by conventional method, 2-8° C.; format: physicochemical; conditions: for Individual unknown impurity NMT 0.10% / Purity (HPLC) NLT 99.0% / Total impurities NMT 1.00% / Water content (KF), NMT 1.00% / AICA NMT 0.15% / Appearance (White to off-white powder) / Assay (HPLC) (98.0-102.0%): conventional method, 2-8° C.
Experimental: The Temozolomide was stable at temperature 2-8° C.

[2] = Long-term stability of Temozolomide prepared by the process of the present invention, 25° C. ± 2° C., 60% ± 5% RH; format: physicochemical; conditions: for AICA NMT 0.15% / Appearance (White to off-white powder) / Assay (HPLC) (98.0-102.0%) / Purity (HPLC) NLT 99.0% / Total impurities NMT 1.00% / Water content (KF), NMT 1.00% / AHX NMT 0.15% / Individual unknown impurity NMT 0.10%: process of the present invention, 25° C. ± 2° C., RH 60% ± 5%
Text: The Temozolomide was stable at temperature 25 degree ° C. for at least 18 months.

SMILES: Cn1nnc2c(C(N)=O)ncn2c1=O [Temozolomide, 8-carbamoyl-3-methyl-imidazo[5,1-d]-1,2,3,5-tetrazin-4(3H)-one]
- Individual unknown impurity NMT 0.10% ([1]; 2 months): 0.01%
- Purity (HPLC) NLT 99.0% ([1]; 2 months): 99.9%
- Total impurities NMT 1.00% ([1]; 2 months): 0.06%
- Water content (KF), NMT 1.00% ([1]; 2 months): 0.20%
- AICA NMT 0.15% ([1]; 3 months): 0.01%
- Appearance (White to off-white powder) ([1]; 3 months): Light beige
- Assay (HPLC) (98.0-102.0%) ([1]; 3 months): 99.6%
- Individual unknown impurity NMT 0.10% ([1]; 3 months): 0.01%
- Purity (HPLC) NLT 99.0% ([1]; 3 months): 100.0%
- Total impurities NMT 1.00% ([1]; 3 months): 0.03%
- Water content (KF), NMT 1.00% ([1]; 3 months): 0.14%
- AICA NMT 0.15% ([1]; 6 months): 0.01%
- Appearance (White to off-white powder) ([1]; 6 months): Light beige
- Assay (HPLC) (98.0-102.0%) ([1]; 6 months): 99.7%
- Individual unknown impurity NMT 0.10% ([1]; 6 months): 0.01%
- Purity (HPLC) NLT 99.0% ([1]; 6 months): 99.9%
- Total impurities NMT 1.00% ([1]; 6 months): 0.05%
- Water content (KF), NMT 1.00% ([1]; 6 months): 0.34%
- AICA NMT 0.15% ([1]; 9 months): 0.04%
- Appearance (White to off-white powder) ([1]; 9 months): Light beige
- Assay (HPLC) (98.0-102.0%) ([1]; 9 months): 98.5%
- Individual unknown impurity NMT 0.10% ([1]; 9 months): 0.01%
- Purity (HPLC) NLT 99.0% ([1]; 9 months): 99.9%
- Total impurities NMT 1.00% ([1]; 9 months): 0.05%
- Water content (KF), NMT 1.00% ([1]; 9 months): 0.21%
- AICA NMT 0.15% ([1]; 12 months): 0.06%
- Appearance (White to off-white powder) ([1]; 12 months): Light beige
- Assay (HPLC) (98.0-102.0%) ([1]; 12 months): 99.2%
- Individual unknown impurity NMT 0.10% ([1]; 12 months): 0.02%
- Purity (HPLC) NLT 99.0% ([1]; 12 months): 99.8%
- Total impurities NMT 1.00% ([1]; 12 months): 0.09%
- Water content (KF), NMT 1.00% ([1]; 12 months): 0.11%
- Long-term stability (in words) ([1]; prepared by conventional method, temperature 2-8° C.): stable
- Time stable ([2]; prepared by the process of the present invention, temperature 25 degree ° C.): at least 18 months
- AICA NMT 0.15% ([2]; 0 time): 0.01%
- Appearance (White to off-white powder) ([2]; 0 time): White
- Assay (HPLC) (98.0-102.0%) ([2]; 0 time): 99.7%
- Purity (HPLC) NLT 99.0% ([2]; 0 time): 100.0%
- Total impurities NMT 1.00% ([2]; 0 time): 0.01%
- Water content (KF), NMT 1.00% ([2]; 0 time): 0.09%
- AICA NMT 0.15% ([2]; 1 month): 0.01%
- Appearance (White to off-white powder) ([2]; 1 month): White
- Assay (HPLC) (98.0-102.0%) ([2]; 1 month): 100.0%
- Purity (HPLC) NLT 99.0% ([2]; 1 month): 100.0%
- Total impurities NMT 1.00% ([2]; 1 month): 0.01%
- Water content (KF), NMT 1.00% ([2]; 1 month): 0.12%
- AICA NMT 0.15% ([2]; 2 months): 0.01%
- Appearance (White to off-white powder) ([2]; 2 months): White
- Assay (HPLC) (98.0-102.0%) ([2]; 2 months): 99.4%
- Purity (HPLC) NLT 99.0% ([2]; 2 months): 100.0%
- Total impurities NMT 1.00% ([2]; 2 months): 0.01%
- Water content (KF), NMT 1.00% ([2]; 2 months): 0.04%
- AHX NMT 0.15% ([2]; 3 months): 0.01%
- AICA NMT 0.15% ([2]; 3 months): 0.11%
- Appearance (White to off-white powder) ([2]; 3 months): White
- Assay (HPLC) (98.0-102.0%) ([2]; 3 months): 99.4%
- Purity (HPLC) NLT 99.0% ([2]; 3 months): 99.7%
- Total impurities NMT 1.00% ([2]; 3 months): 0.11%
- Water content (KF), NMT 1.00% ([2]; 3 months): 0.11%
- Appearance (White to off-white powder) ([2]; 6 months): White
- Assay (HPLC) (98.0-102.0%) ([2]; 6 months): 99.3%
- Purity (HPLC) NLT 99.0% ([2]; 6 months): 100.0%
- Water content (KF), NMT 1.00% ([2]; 6 months): 0.13%
- AICA NMT 0.15% ([2]; 9 months): 0.02%
- Appearance (White to off-white powder) ([2]; 9 months): White
- Assay (HPLC) (98.0-102.0%) ([2]; 9 months): 100.8%
- Purity (HPLC) NLT 99.0% ([2]; 9 months): 99.9%
- Total impurities NMT 1.00% ([2]; 9 months): 0.02%
- Water content (KF), NMT 1.00% ([2]; 9 months): 0.17%
- AHX NMT 0.15% ([2]; 12 months): 0.01%
- AICA NMT 0.15% ([2]; 12 months): 0.02%
- Appearance (White to off-white powder) ([2]; 12 months): Light pink
- Assay (HPLC) (98.0-102.0%) ([2]; 12 months): 99.8%
- Individual unknown impurity NMT 0.10% ([2]; 12 months): 0.01%
- Purity (HPLC) NLT 99.0% ([2]; 12 months): 99.9%
- Total impurities NMT 1.00% ([2]; 12 months): 0.04%
- Water content (KF), NMT 1.00% ([2]; 12 months): 0.04%
- AICA NMT 0.15% ([2]; 18 months): 0.01%
- Appearance (White to off-white powder) ([2]; 18 months): White
- Assay (HPLC) (98.0-102.0%) ([2]; 18 months): 99.4%
- Individual unknown impurity NMT 0.10% ([2]; 18 months): 0.01%
- Purity (HPLC) NLT 99.0% ([2]; 18 months): 100.0%
- Total impurities NMT 1.00% ([2]; 18 months): 0.02%
- Water content (KF), NMT 1.00% ([2]; 18 months): 0.07%
